We go through eight molecules from patent US6476067B1, “N-formyl hydroxylamine derivatives as antibacterial agents” (British Biotech, priority 1998, dated 2002).

Series [1] concerns Staphylococcus capitis (American Type Culture Collection number 35661). Put plainly: Minimal inhibitory concentration (MIC), broth microdilution. The format is cell-based. As to conditions: ATCC35661, S. capitis ATCC 35661, 2×YT broth, 37° C., 18 hours, lowest concentration that inhibited visible growth. The method, then:
(§1) Minimal inhibitory concentrations (MIC) of inhibitors against E. colistrain DH5α (Genotype; F-φ80d/acZΔM15Δ(lacZYA-argF)U169 deoR recA1 endA1 hsdR17(rk^−,mk^+)phoA supE44λ^−thi-1 gyrA96 re/A1) obtained from GibcoBRL Life Technologies, or Staphylococcus capitis (American Type Culture Collection number 35661) were determined as follows. Stock solutions of each test compound were prepared by dissolution of the compound in dimethylsulfoxide at 10 mM. For the determination of the minimal inhibitory concentration, two fold serial dilutions were prepared in 2×YT broth (typtone-16 g/1, yeast extract 10 g/1, sodium chloride 5 g/1 obtained from BIO 101 Inc, 1070 Joshua Way, Vista, Calif. 92083, USA) to yield 0.05 ml compound-containing medium per well. Inocula were prepared from cultures grown overnight in 2×YT broth at 37° C. Cell densities were adjusted to absorbance at 660 nm (A660)=0.1; the optical density-standardized preparations were diluted 1:1000 in 2×YT broth; and each well inoculated with 0.05 ml of the diluted bacteria. Microtiter plates were incubated at 37° C. for 18 hours in a humidified incubator. The MIC (μM) was recorded as the lowest drug concentration that inhibited visible growth.
Background: Dilution methods test growth across graded concentrations, often in twofold steps.

For the next series, the system named is E. coli strain DH5α. Described as above. To be noted: Escherichia coli, 2×YT broth, 37° C., 18 hours, lowest concentration that inhibited visible growth. The format is cell-based. The method, then:
as §1

Molecules are shown by their SMILES. Values after ≈ are worked out from the molar mass of the structure shown.

A word on the MIC: it is the smallest concentration in the dilution series that meets the test's criterion for growth inhibition. For `O=CN(O)CC(Cc1ccccc1)C(=O)N[C@@H](Cc1ccccc1)C(=O)OC1CCCC1` (stereo partly drawn) [Example 1, 2S-[2-(R,S)-Benzyl-3-(formyl-hydroxy-amino)-propionylamino]-3-phenyl-propionic acid cyclopentyl ester], the MIC in series [1] was 12.5 µM (≈ 5.48 µg/mL); against E. coli strain DH5α, 500 µM (≈ 219 µg/mL).

`CCCC[C@H](CN(O)C=O)C(=O)N[C@H](C(=O)OC1CCCC1)C(C)(C)C` [Example 3, 2S{-2R-[(Formyl-hydroxy-amino)-methyl]-hexanoylamino}-3,3-dimethyl Butyric Acid Cyclopentyl Ester]: the MIC stood at 12.5 µM (≈ 4.63 µg/mL) in series [1] and 50 µM (≈ 18.5 µg/mL) in the series on E. coli strain DH5α.

With `CCCC[C@H](CN(O)C=O)C(=O)N[C@@H](Cc1ccccc1)C(=O)OC1CCCC1` [Example 4, 2S-{2R-[(Formyl-hydroxy-amino)-methyl]-hexanoylamino}-3-phenyl-propionic Acid Cyclopentyl Ester], the figures for the MIC (in series [1]; with E. coli strain DH5α) were 25 µM (≈ 10.1 µg/mL) and 200 to 300 µM (≈ 80.9 to 121 µg/mL), respectively.

On to `CC(C)C[C@@H](C(=O)N[C@@H](Cc1ccccc1)C(=O)OC1CCCC1)C(C)N(O)C=O` (stereo partly drawn) [Example 2, 2S-{2R-[1-(R,S)-(Formyl-hydroxy-amino)-ethyl]-4-methyl-pentanoylamino}-3-phenylpropionic Acid Cyclopentyl Ester], for which the MIC was 200 to 300 µM (≈ 83.7 to 126 µg/mL) in series [1] and greater than 200 µM in the series with E. coli strain DH5α.

What is called melting point is the temperature, or range, at which the solid turns liquid. Regarding `CCCC[C@H](CN(O)C=O)C(=O)N[C@H](C(=O)OC(C)(C)C)C(C)(C)C` [Example 11, 2S-{2R-[(Formyl-hydroxy-amino)-methyl]-hexanoylamino}-3,3-dimethyl-butyric Acid Tert-butyl Ester], the melting point lay within 76.1 to 78.2 °C.

Consider `CCCCC(CN(O)C=O)C(=O)N[C@H](C(=O)OC1CCCC1)C(C)C` (stereo partly drawn) [Example 6, 2S-{2R-[(Formyl-hydroxy-amino)methyl]-hexanoylamino}-3-methyl Butyric Acid Cyclopentyl Ester], for which the MIC came out at 50 µM (≈ 17.8 µg/mL) in series [1] and 100 µM (≈ 35.6 µg/mL) in the series on E. coli strain DH5α.

Molecule `O=CN(O)C[C@@H](CC1CCCC1)C(=O)N[C@@H](Cc1ccccc1)C(=O)OC1CCCC1` [Example 16, 2S-[2R-Cyclopentylmethyl-3-(formyl-hydroxy-amino)-propionylamino]-3-phenyl-propionic Acid Cyclopentyl Ester] gave a melting point of 76.8 to 78.5 °C.

`CCCC[C@H](CN(O)C=O)C(=O)N[C@H](C(=O)OC)C(C)(C)C` [Example 5, 2S-{2R-[(Formyl-hydroxy-amino)methyl]-hexanoylamino}-3,3-dimethyl Butyric Acid Methyl Ester] came in with a melting point of 63.5 to 64.5 °C. The lowest concentration to inhibit growth in series [1] (MIC) was 200 µM (≈ 63.3 µg/mL). Further, the MIC in the series on E. coli strain DH5α turned out to be 50 µM (≈ 15.8 µg/mL).
